US20230078764A1 (Yumanity Therapeutics, Inc., priority 2019, published 2023)
Like-named read-outs stand apart in the source and are kept apart here.

Key:
human SCD1 = target: T1, human SCD1 (Homo sapiens, UniProt O00767); assay: Growth inhibition of yeast strain expressing human SCD1 as sole desaturase (OLE1 deleted), OD600 readout; format: cell-based
T1 construct: expressed in transfected cells; host or cells: yeast strain with OLE1 deleted, plasmid-borne human SCD1 (selected in SD-Ura)
T1 sequence (O00767 1-359): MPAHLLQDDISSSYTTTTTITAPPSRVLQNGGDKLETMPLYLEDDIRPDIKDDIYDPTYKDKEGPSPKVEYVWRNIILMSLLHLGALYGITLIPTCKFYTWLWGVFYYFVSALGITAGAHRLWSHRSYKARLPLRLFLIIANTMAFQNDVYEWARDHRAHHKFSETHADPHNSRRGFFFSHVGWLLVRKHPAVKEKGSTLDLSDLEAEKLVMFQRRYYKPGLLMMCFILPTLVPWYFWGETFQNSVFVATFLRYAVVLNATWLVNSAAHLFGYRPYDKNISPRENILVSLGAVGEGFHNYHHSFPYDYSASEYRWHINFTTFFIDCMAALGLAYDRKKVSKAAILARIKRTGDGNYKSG

human SCD5 = target: T2, human SCD5 (Homo sapiens, UniProt Q86SK9); assay: Growth inhibition of yeast strain expressing human SCD5 as sole desaturase (OLE1 deleted), OD600 readout; format: cell-based
T2 construct: expressed in transfected cells; host or cells: yeast strain with OLE1 deleted, plasmid-borne human SCD5 (selected in SD-Ura)
T2 sequence (Q86SK9 1-330): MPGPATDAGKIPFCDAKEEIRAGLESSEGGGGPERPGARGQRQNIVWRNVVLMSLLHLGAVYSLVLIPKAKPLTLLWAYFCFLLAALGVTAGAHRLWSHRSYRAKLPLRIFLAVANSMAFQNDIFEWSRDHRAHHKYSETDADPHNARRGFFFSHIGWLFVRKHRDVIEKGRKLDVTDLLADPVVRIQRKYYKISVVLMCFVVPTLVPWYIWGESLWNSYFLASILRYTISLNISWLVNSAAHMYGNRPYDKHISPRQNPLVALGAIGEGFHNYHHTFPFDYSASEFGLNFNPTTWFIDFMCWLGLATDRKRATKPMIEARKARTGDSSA

[1] = yeast strain expressing human SCD1 as sole desaturase, growth (OD600) after 40 h at 30° C., read-out: SCD1 IC50
[2] = yeast strain expressing human SCD5 as sole desaturase, growth (OD600) after 40 h at 30° C., read-out: SCD5 IC50

Compound | IC50 (human SCD1; [1]) | IC50 (human SCD5; [2]) | IC50 (human SCD1; SCD1 IC50) | IC50 (human SCD5; SCD5 IC50)
Cn1ncc2cc(-c3ccc(Cc4cccc(F)c4)cn3)ccc21 [Compound 153, 5-(5-(3-fluorobenzyl)pyridin-2-yl)-1-methyl-1H-indazole] | 5.3 µM | 7.6 µM | – | –
O=C(Nc1ccc2nncn2c1)c1ccc(Cc2cccc(Cl)c2)cn1 [Compound 150, N-([1,2,4]triazolo[4,3-a]pyridin-6-yl)-5-(3-chlorobenzyl)picolinamide trifluoroacetic Acid] | 0.02 µM | 0.01 µM | – | –
Cn1nc(C(=O)Nc2ccc(COc3cc(Cl)cc(C#N)c3)cn2)ccc1=O [Compound 671] | > 45 µM | 2 µM | – | –
CN(c1ccc(NC(=O)c2ccc(=O)n(C)c2)nc1)c1cccc(F)c1 [Compound 302] | > 45 µM | 3.34 µM | – | –
Cn1cc(NC(=O)c2ccc(Cc3cccc(F)c3)cn2)ccc1=O [Compound 357] | 4.06 µM | 0.05 µM | – | –
Cn1ccc(NC(=O)c2ccc(Cc3cccc(F)c3)cn2)n1 [Compound 95, 5-(3-fluorobenzyl)-N-(1-methyl-1H-pyrazol-3-yl)picolinamide] | > 45 µM | 0.01 µM | – | –
Cn1ccc(C(=O)Nc2ccc(Cc3ccc(F)c(F)c3)cn2)nc1=O [Compound 548] | > 45 µM | 3 µM | – | –
N#Cc1ccc(C(=O)Nc2ccc(COc3cccc(Cl)c3)cn2)cn1 [Compound 492] | > 45 µM | 5.8 µM | – | –
CC(C)n1nc(C(=O)Nc2ccc(Cc3cccc(F)c3)cn2)ccc1=O [Compound 72, N-(5-(3-fluorobenzyl)pyridin-2-yl)-1-isopropyl-6-oxo-1,6-dihydropyridazine-3-carboxamide] | – | – | 4.7 µM | 0.39 µM
CN1N=C(C(=O)Nc2ncc(COc3cccc(Cl)c3)s2)CCC1=O [Compound 385] | > 45 µM | > 45 µM | – | –
CN1N=C(C(=O)Nc2ccc(COc3cccc(F)c3)cn2)CCC1=O [Compound 260] | 4.58 µM | 0.17 µM | – | –
Cn1cc(C(=O)Nc2ccc(COc3cccc(Cl)c3)cn2)ccc1=O [Compound 172, N-(5-((3-chlorophenoxy)methyl)pyridin-2-yl)-1-methyl-6-oxo-1,6-dihydropyridine-3-carboxamide] | 2.29 µM | 0.37 µM | – | –
CN1N=C(C(=O)Nc2ccc(Cc3cccc(CO)c3)cn2)CCC1=O [Compound 436] | 6.24 µM | > 45 µM | – | –
O=C(Nc1ccc(Cc2cccc(Cl)c2)cn1)c1ccc2nncn2c1 [Compound 146, N-(5-(3-chlorobenzyl)pyridin-2-yl)-[1,2,4]triazolo[4,3-a]pyridine-6-carboxamide] | 0.19 µM | 0.01 µM | – | –
Cc1nccc(C(=O)Nc2ccc(Cc3cc(F)cc(C#N)c3)cn2)n1 [Compound 134, N-(5-(3-cyano-5-fluorobenzyl)pyridin-2-yl)-2-methylpyrimidine-4-carboxamide] | 0.09 µM | 0.01 µM | – | –
CN1N=C(C(=O)Nc2ccc(Cc3cccc(F)c3)cn2)CCC1=O [Compound 6, N-(5-(3-fluorobenzyl)pyridin-2-yl)-1-methyl-6-oxo-1,4,5,6-tetrahydropyridazine-3-carboxamide] | > 45 µM | 1.02 µM | – | –
CN1C(=O)CCC1C(=O)Nc1ncc(Cc2cccc(F)c2)s1 (centres unmarked) [Compound 400] | > 45 µM | > 45 µM | – | –
Cn1nc(C(=O)Nc2nnc(Cc3ccc(F)c(Cl)c3)s2)ccc1=O [Compound 347] | 0.68 µM | 0.71 µM | – | –
Cc1cc(C(=O)Nc2ccc(Cc3cccc(F)c3)cn2)c(=O)n(C)n1 [Compound 624] | > 45 µM | 0.054 µM | – | –
CN1N=C(C(=O)Nc2ncc(Cc3cccc(C#N)c3)s2)CCC1=O [Compound 209, N-(5-(3-cyanobenzyl)thiazol-2-yl)-1-methyl-6-oxo-1,4,5,6-tetrahydropyridazine-3-carboxamide] | 1.69 µM | 2.45 µM | – | –
O=C(Nc1ccc(Cc2cccc(F)c2)cn1)c1ccc(=O)n(CC2CC2)n1 [Compound 77, 1-(cyclopropylmethyl)-N-(5-(3-fluorobenzyl)pyridin-2-yl)-6-oxo-1,6-dihydropyridazine-3-carboxamide] | > 45 µM | 6.73 µM | – | –
CCn1cc(C(=O)Nc2ccc(Cc3cccc(Cl)c3)cn2)ccc1=O [Compound 84, N-(5-(3-chlorobenzyl)pyridin-2-yl)-1-ethyl-6-oxo-1,6-dihydropyridine-3-carboxamide] | 6.66 µM | 0.37 µM | – | –
Cn1nc(C(=O)Nc2ccc(Cc3cc(F)cc(Cl)c3)cn2)ccc1=O [Example 40, N-(5-(3-chloro-5-fluorobenzyl)pyridin-2-yl)-1-methyl-6-oxo-1,6-dihydropyridazine-3-carboxamide] | 0.11 µM | 0.01 µM | – | –
COc1cc(Cc2ccc(NC(=O)c3cnc(Cl)cn3)nc2)ccc1F [Compound 634] | > 45 µM | 0.28 µM | – | –
O=C(Nc1ccc(Cc2ccc(F)c(F)c2)cn1)c1ncc(CO)cn1 [Compound 603] | 0.01 µM | 0.01 µM | – | –
CN1N=C(C(=O)Nc2ncc(Cc3ccccc3Cl)s2)CCC1=O [Compound 230, N-(5-(2-chlorobenzyl)thiazol-2-yl)-1-methyl-6-oxo-1,4,5,6-tetrahydropyridazine-3-carboxamide] | 2.88 µM | 3.8 µM | – | –

Further lines, with some results ahead:

IC50 (human SCD1; [1]) | IC50 (human SCD5; [2]) | Compound | IC50 (human SCD1; SCD1 IC50) | IC50 (human SCD5; SCD5 IC50)
0.08 µM | 0.01 µM | Cc1nccc(C(=O)Nc2ccc(Cc3ccc(F)c(C#N)c3)cn2)n1 [Compound 113, N-(5-(3-cyano-4-fluorobenzyl)pyridin-2-yl)-2-methylpyrimidine-4-carboxamide] | – | –
1 µM | 0.01 µM | Cn1nc(C(=O)Nc2ccc(Cc3cc(F)cc(C(F)F)c3)cn2)ccc1=O [Compound 562] | – | –
> 45 µM | 8.9 µM | Cn1cc(C(=O)Nc2ccc(N3CC(Oc4cccc(Cl)c4)C3)cn2)ccc1=O [Compound 660] | – | –
1.9 µM | 0.086 µM | Cn1cc(C(=O)Nc2ccc(Cc3cccc(Cl)c3)cn2)cnc1=O [Compound 652] | – | –
> 45 µM | 10 µM | CN1N=C(C(=O)Nc2ncc(Cc3cccc(Cl)c3)cc2F)CCC1=O [Compound 124, N-(5-(3-chlorobenzyl)-3-fluoropyridin-2-yl)-1-methyl-6-oxo-1,4,5,6-tetrahydropyridazine-3-carboxamide] | – | –
3.2 µM | 0.098 µM | COc1cc(Cc2ccc(NC(=O)c3cnc(C#N)cn3)nc2)ccc1F [Compound 638] | – | –
22.5 µM | 4.91 µM | O=C(Nc1ccc(COc2cccc(Cl)c2)cn1)c1ccc(=O)n(C2CC2)c1 [Compound 291] | – | –
0.3 µM | 0.03 µM | CCn1cc(C(=O)Nc2ccc(Cc3cccc(Cl)c3)cn2)cn1 [Compound 373] | – | –
> 45 µM | 7.6 µM | Cn1nc(C(=O)Nc2ccc(CC3CCCCC3)cn2)cc1O [Compound 476] | – | –
1.9 µM | 0.36 µM | Cn1cc(C(=O)Nc2ccc(Cc3cccc(F)c3F)cn2)ccc1=O [Compound 552] | – | –
0.75 µM | 0.04 µM | O=C(Nc1ccc(Cc2cccc(Cl)c2)cn1)c1ccc(=O)n(C2CC2)n1 [Compound 256] | – | –
22.5 µM | 0.34 µM | O=C(Nc1ccc(Cc2cccc(Cl)c2)cn1)c1ccc(C(F)F)nc1 [Compound 295] | – | –
2.9 µM | 0.49 µM | CCn1nc(C(=O)Nc2ccc(Cc3ccc(Cl)c(Cl)c3)cn2)ccc1=O [Compound 70, N-(5-(3,4-dichlorobenzyl)pyridin-2-yl)-1-ethyl-6-oxo-1,6-dihydropyridazine-3-carboxamide] | – | –
2.03 µM | 0.07 µM | Cc1ccc(C(=O)Nc2ccc(Cc3ccc(F)c(F)c3)cn2)nn1 [Compound 241] | – | –
> 45 µM | 7.18 µM | CN1N=C(C(=O)Nc2ccc(CC3CCCCC3)nn2)CCC1=O [Compound 198, N-(6-(cyclohexylmethyl)pyridazin-3-yl)-1-methyl-6-oxo-1,4,5,6-tetrahydropyridazine-3-carboxamide] | – | –
9.3 µM | 2.4 µM | Cn1cc(C(=O)Nc2ccc(C3(c4ccc(F)c(F)c4)CC3)cn2)ccc1=O [Compound 647] | – | –
> 45 µM | > 45 µM | O=C(Nc1ncc(Cc2cccc(F)c2)s1)C1=NN(CCO)C(=O)CC1 [Compound 420] | – | –
0.01 µM | 0.01 µM | CNC(=O)c1ccnc(NC(=O)c2ccc(Cc3cccc(F)c3)cn2)c1 [Compound 567] | – | –
1.1 µM | 0.13 µM | Cn1nc(C(=O)Nc2ccc(Cc3cccc(Cl)c3)cn2)ccc1=O [Example 47, N-(5-(3-chlorobenzyl)pyridin-2-yl)-1-methyl-6-oxo-1,6-dihydropyridazine-3-carboxamide] | – | –
1.4 µM | 0.48 µM | COc1ncc(C(=O)Nc2ccc(Cc3cccc(Cl)c3)cn2)cn1 [Compound 649] | – | –
